This note sets out measurements from ChEMBL document CHEMBL1201862, “PubChem BioAssay data set” (2004).

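The compound was tested at five concentrations on cells cultured in 96-well plates, with a 48-hour exposure period. At the GI50, growth is halved.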 Calls of active or inactive are those of the source. Cut-off read from the data, not from the text of the source: active = GI50 up to about 1.1 µM and inactive = higher.

Some test systems named below: 786-0; BT-549; CAKI-1; HCC 2998; HOP-92; MCF7; Malme-3M; NCI-H23; NCI-H522; NCI/ADR-RES; RPMI-8226; RXF 393; SF-539; SK-MEL-28; SK-MEL-5; SK-OV-3; SN12C; SR; UO-31.
Assay in all cases: inhibition of tumour cell growth, NCI panel, 48 h

Regarding `COC(=O)c1cc(-c2ccc3ccccc3c2)nc(O)c1C#N`, the GI50 with 786-0 was > 100 µM (inactive); in the assay on BT-549 it was > 100 µM (inactive); in the assay with CAKI-1, > 100 µM (inactive); with HCC 2998 it was 17.1 µM (inactive); with HOP-92 it was > 100 µM (inactive); in the assay with MCF7 it was > 100 µM (inactive). The GI50 in the assay on Malme-3M, in the assay with NCI-H23, with NCI-H522, with NCI/ADR-RES, with RPMI-8226 and in the assay on RXF 393 was > 100 µM (inactive) throughout. In addition, the GI50 with SF-539, in the assay with SK-MEL-28, with SK-MEL-5, in the assay with SK-OV-3, in the assay on SN12C and in the assay with SR was > 100 µM (inactive) each time. In the assay on UO-31, the GI50 is > 100 µM (inactive).

With `Cc1c(CNc2ccc(Cl)c(Cl)c2Cl)cnc2nc(N)nc(N)c12`, the GI50 with 786-0 was 0.0918 µM (active); in the assay with BT-549, 24.9 µM (inactive); in the assay with CAKI-1, > 100 µM (inactive); in the assay on HCC 2998, 3.17 µM (inactive); in the assay with HOP-92, 5.85 µM (inactive); in the assay on MCF7 it was 0.792 µM (active). Further, the GI50 is 3.12 µM (inactive) in the assay with Malme-3M; 0.255 µM (active) in the assay on NCI-H23; 4.46 µM (inactive) in the assay on NCI-H522; > 100 µM (inactive) in the assay with NCI/ADR-RES; 2.08 µM (inactive) in the assay with RPMI-8226; 11.9 µM (inactive) in the assay with RXF 393. Also, the GI50 is 0.483 µM (active) with SF-539; 5.33 µM (inactive) in the assay on SK-MEL-28; 0.263 µM (active) with SK-MEL-5; > 35.6 µM (inactive) in the assay with SK-OV-3; 1.36 µM (inactive) with SN12C; 0.357 µM (active) with SR. The GI50 in the assay on UO-31 is 2.44 µM (inactive).

For the compound `O=[N+]([O-])/C(C(Cl)=C(Cl)Cl)=C(/Sc1ccccc1)N1CCOCC1`, the GI50 is 2.28 µM (inactive) with 786-0; 4.76 µM (inactive) in the assay on BT-549; 6.27 µM (inactive) in the assay with CAKI-1; 15.3 µM (inactive) in the assay on HCC 2998; 2.34 µM (inactive) in the assay with HOP-92; 2.57 µM (inactive) with MCF7. The GI50 is 5.13 µM (inactive) with Malme-3M; 11.3 µM (inactive) in the assay with NCI-H23; 4.31 µM (inactive) with NCI-H522; 6.28 µM (inactive) in the assay on NCI/ADR-RES; 2.62 µM (inactive) in the assay on RPMI-8226; 1.92 µM (inactive) in the assay with RXF 393. For the same compound, the GI50 with SF-539 is 6.03 µM (inactive); in the assay on SK-MEL-28 it was 4.74 µM (inactive); in the assay on SK-MEL-5, 3 µM (inactive); in the assay on SK-OV-3 it was 34.8 µM (inactive); in the assay on SN12C, 4.76 µM (inactive); in the assay with SR, 2.12 µM (inactive). In addition, in the assay on UO-31, the GI50 was 4.67 µM (inactive).

For `CC1=NC(C)(COC(=O)C2(C)NC(C)(CO)CO2)COC1=O` (configuration not stated), the GI50 with 786-0, in the assay on BT-549, with CAKI-1, in the assay with HCC 2998, in the assay with HOP-92 and with MCF7 was > 100 µM (inactive) throughout. Further, the GI50 in the assay on Malme-3M, in the assay with NCI-H23, in the assay with NCI-H522, in the assay with NCI/ADR-RES, in the assay with RPMI-8226 and with RXF 393 was > 100 µM (inactive) throughout. For the same compound, the GI50 in the assay with SF-539 is > 100 µM (inactive); in the assay with SK-MEL-28 it was > 100 µM (inactive); with SK-MEL-5 it was > 100 µM (inactive); in the assay on SK-OV-3 it was > 100 µM (inactive); in the assay on SN12C, > 100 µM (inactive); in the assay on SR, > 33 µM (inactive). Further, in the assay with UO-31, the GI50 was > 100 µM (inactive).

Regarding `O=C(CCCc1cccc2[nH]c3c(c12)CN(Cc1ccccc1)CC3)c1ccc(F)cc1`, the GI50 was > 52.5 µM (inactive) in the assay with 786-0; > 100 µM (inactive) with BT-549; > 100 µM (inactive) in the assay with CAKI-1; 11.9 µM (inactive) in the assay on HCC 2998; > 100 µM (inactive) with HOP-92; > 100 µM (inactive) with MCF7. The GI50 in the assay with Malme-3M was 40.9 µM (inactive); in the assay on NCI-H23, 16.3 µM (inactive); with NCI-H522, 32.4 µM (inactive); with NCI/ADR-RES, > 100 µM (inactive); with RPMI-8226 it was 12.8 µM (inactive); in the assay on RXF 393 it was > 29.9 µM (inactive). For the same compound, the GI50 in the assay with SF-539 was > 47.8 µM (inactive); with SK-MEL-28 it was > 100 µM (inactive); in the assay on SK-MEL-5, 18.2 µM (inactive); with SK-OV-3 it was > 47.1 µM (inactive); in the assay on SN12C, > 100 µM (inactive); with SR, 13 µM (inactive). The GI50 in the assay with UO-31 was > 33.3 µM (inactive).

For the compound `CCOC(=O)C(NC(=O)c1ccccc1)(Nc1ccc(S(=O)(=O)Nc2ccc(OC)nn2)cc1)C(F)(F)F` (configuration not stated), the GI50 in the assay with 786-0, with BT-549, in the assay with CAKI-1, in the assay on HCC 2998, in the assay on HOP-92 and in the assay on MCF7 was > 100 µM (inactive) each time. Further, the GI50 with Malme-3M, in the assay on NCI-H23, in the assay with NCI-H522, with NCI/ADR-RES, with RPMI-8226 and in the assay with RXF 393 was > 100 µM (inactive) throughout. Also, the GI50 with SF-539, in the assay with SK-MEL-28, in the assay with SK-MEL-5, with SK-OV-3, with SN12C and in the assay on SR was > 100 µM (inactive) in each case. In addition, the GI50 in the assay with UO-31 was > 100 µM (inactive).

On to `Clc1ccc(C2c3ccccc3-c3nc4ccccc4n32)cc1` (configuration not stated), for which the GI50 in the assay on 786-0 was 17.7 µM (inactive); in the assay on BT-549, 43.5 µM (inactive); with CAKI-1 it was 37.1 µM (inactive); in the assay with HCC 2998, 18.9 µM (inactive); in the assay on HOP-92, 34.8 µM (inactive); in the assay with MCF7 it was 18.3 µM (inactive). For the same compound, the GI50 is 38.8 µM (inactive) with Malme-3M; 15.5 µM (inactive) with NCI-H23; 11.6 µM (inactive) in the assay on NCI-H522; 11.8 µM (inactive) with NCI/ADR-RES; 9.75 µM (inactive) in the assay on RPMI-8226; 5.26 µM (inactive) in the assay with RXF 393. Further, the GI50 is > 54.7 µM (inactive) in the assay on SF-539; > 56.8 µM (inactive) in the assay with SK-MEL-28; 27.4 µM (inactive) in the assay on SK-MEL-5; 3.34 µM (inactive) in the assay with SK-OV-3; 42.1 µM (inactive) in the assay with SN12C; 8.99 µM (inactive) with SR. For the same compound, in the assay with UO-31, the GI50 is 4.05 µM (inactive).

Consider `Cc1ccc(S(=O)(=O)NNCNC(=O)c2ccccc2)cc1`, for which the GI50 in the assay on 786-0, with BT-549, with CAKI-1, with HCC 2998, in the assay with HOP-92 and in the assay with MCF7 was > 100 µM (inactive) each time. Moreover, the GI50 in the assay on Malme-3M is > 100 µM (inactive); in the assay with NCI-H23, > 100 µM (inactive); with NCI-H522 it was > 100 µM (inactive); in the assay on NCI/ADR-RES, 54.6 µM (inactive); in the assay with RPMI-8226 it was 76 µM (inactive); with RXF 393, > 100 µM (inactive). In addition, the GI50 with SF-539 was > 100 µM (inactive); in the assay with SK-MEL-28, > 100 µM (inactive); in the assay with SK-MEL-5 it was > 100 µM (inactive); in the assay with SK-OV-3, > 100 µM (inactive); in the assay on SN12C it was > 100 µM (inactive); with SR, 2.29 µM (inactive). Moreover, the GI50 in the assay on UO-31 is 82.8 µM (inactive).
